Experimental data: patent US6586468B1, “ω-substituted phenyl-prostaglandin E derivatives and drugs containing the same as the active ingredient” (Ono Pharmaceutical Co., Ltd., priority 1998, dated 2003)

Columns and labels:
[1] = target: T1, EP3α (Mus musculus, UniProt P30557); test: Binding assay using expression CHO cell of prostanoid receptor subtype, [3H]-PGE2 binding inhibition (EP3α); settings: membrane fraction of CHO cells expressing mouse EP3α; [3H]-PGE2 2.5 nM; Ki=IC50/(1+([C]/Kd)); read-out: Dissociation Constant Ki (μM) EP3α
T1 construct: expressed in transfected cells; host or cells: CHO cells (membrane fraction)
T1 sequence (P30557 1-365): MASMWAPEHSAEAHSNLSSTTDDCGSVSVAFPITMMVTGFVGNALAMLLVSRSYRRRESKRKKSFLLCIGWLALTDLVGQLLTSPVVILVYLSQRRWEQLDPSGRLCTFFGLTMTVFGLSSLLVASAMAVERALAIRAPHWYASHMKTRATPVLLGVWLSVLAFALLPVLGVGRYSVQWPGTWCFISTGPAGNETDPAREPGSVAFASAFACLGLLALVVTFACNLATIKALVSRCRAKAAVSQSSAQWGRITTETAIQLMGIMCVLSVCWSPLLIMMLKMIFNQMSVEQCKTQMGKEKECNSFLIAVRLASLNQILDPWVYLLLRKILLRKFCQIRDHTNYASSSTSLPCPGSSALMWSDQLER
Experimental: (§1) (i) Binding assay using Expression cell of prostanoids receptor subtype
(§2) The preparation of membrane fraction was carried out according to the method of Sugimoto et al. [J. Biol. Chem., 267, 6463-6466 (1992)], using expression CHO cell of the prostanoids receptor subtype (mouse EP1, EP2, EP3α, EP4 and human IP).
(§3) The standard assay mixture containing membrane fraction (0.5 mg/ml) and [^3H]-PGE2 in a final volume of 200 μl was incubated for 1 hour at room temperature. The reaction was terminated by addition of ice-cooled buffer (3 ml). The mixture was filtered through a GF/B glass filter under reduced pressure. The radioactivity associated with the filter was measured by liquid scintillation counting.
(§4) Kd and Bmax values were determined from Scatchard plots [Ann. N. Y. Acad. Sci., 51, 660 (1949)]. Non-specific binding was calculated as the binding in the presence of an excess (2.5 μM) of unlabeled PGE2. In the measurement of ^3H-PGE2 binding inhibitory activity, [3H]-PGE2 (2.5 nM) and various concentrations of the compounds of the present invention were added. The following buffer was used in all reactions.
(§5) Buffer; 10 mM potassium phosphate (pH 6.0), 1 mM EDTA, 10 mM MgCl2, 0.1 M NaCl.
(§6) The dissociation constant Ki (μM) of each compound was calculated by the following equation.

[2] = target: T2, EP4 (Mus musculus, UniProt P32240); test: Binding assay using expression CHO cell of prostanoid receptor subtype, [3H]-PGE2 binding inhibition (EP4); settings: membrane fraction of CHO cells expressing mouse EP4; [3H]-PGE2 2.5 nM; Ki=IC50/(1+([C]/Kd)); read-out: Dissociation Constant Ki (μM) EP4
T2 construct: expressed in transfected cells; host or cells: CHO cells (membrane fraction)
Experimental: as §1, §2, §3, §4, §5, §6

T2 sequence (P32240 whole entry): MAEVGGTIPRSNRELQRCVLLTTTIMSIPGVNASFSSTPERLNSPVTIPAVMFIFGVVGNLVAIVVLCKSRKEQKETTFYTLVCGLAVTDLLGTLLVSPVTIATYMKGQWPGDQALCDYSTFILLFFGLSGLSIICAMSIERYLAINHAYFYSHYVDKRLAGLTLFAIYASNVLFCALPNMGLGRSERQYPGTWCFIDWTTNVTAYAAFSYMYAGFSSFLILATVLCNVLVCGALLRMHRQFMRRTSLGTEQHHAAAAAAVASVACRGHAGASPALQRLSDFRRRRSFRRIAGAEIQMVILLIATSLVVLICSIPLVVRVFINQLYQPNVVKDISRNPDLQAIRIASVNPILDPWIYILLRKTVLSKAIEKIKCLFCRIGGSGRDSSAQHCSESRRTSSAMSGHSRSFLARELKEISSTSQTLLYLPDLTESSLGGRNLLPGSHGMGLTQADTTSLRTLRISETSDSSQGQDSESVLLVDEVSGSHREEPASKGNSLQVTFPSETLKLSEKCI

Row | SMILES | Ki [1] | Ki [2]
1 | O=C(O)CCCCCC[C@H]1C(=O)C[C@@H](O)[C@@H]1/C=C/[C@@H](O)Cc1cccc(CCF)c1 [2 (1), (11α,15α)-9-oxo-11,15-Dihydroxy-16-[3-(2-fluoroethyl)phenyl]-17,18,19,20-tetranorprost-13E-enoic Acid] | 0.12 µM | 0.0016 µM
2 | COCc1cc(CC(O)/C=C/[C@@H]2[C@@H](C/C=C\CCCC(=O)O)[C@H](Cl)C[C@H]2O)ccc1O (stereo partly drawn) [Example 4, (9β,11α,15ξ)-9-Chloro-11,15-dihydroxy-16-(3-methoxymethyl-4-hydroxyphenyl)-17,18,19,20-tetranorprost-5Z,13E-dienoic Acid] | 3.2 µM | 0.0036 µM
3 | Cc1ccc(C[C@H](O)/C=C/[C@H]2[C@H](O)CC(=O)[C@@H]2C/C=C\CCCC(=O)O)cc1 [reference compound] | 0.011 µM | 0.032 µM
4 | COCc1cccc(C[C@H](O)/C=C/[C@H]2[C@H](O)CC(=O)[C@@H]2CCCCCCC(=O)O)c1 [Example 2, (11α,15α)-9-oxo-11,15-Dihydroxy-16-(3-methoxymethylphenyl)-17,18,19,20-tetranorprost-13E-enoic Acid] | 0.82 µM | 0.006 µM
5 | CCOCc1cccc(CC(O)/C=C/[C@H]2[C@H](O)CC(=O)[C@@H]2CCc2ccc(C(=O)O)cc2)c1 (stereo partly drawn) [5 (12), (11α,15α)-9-oxo-11,15-Dihydroxy-16-(3-ethoxymethylphenyl)-1,6-(1,4-phenylene)-2,3,4,5,17,18,19,20-octanorprost-13E-enoic Acid] | 6 µM | 0.008 µM
6 | Cc1cc(C[C@H](O)/C=C/[C@H]2[C@H](O)CC(=O)[C@@H]2CCCCCCC(=O)O)ccc1O [2 (4), (11α,15α)-9-oxo-11,15-dihydroxy-16-(3-methyl-4-hydroxyphenyl)-17,18,19,20-tetranorprost-13E-enoic Acid] | > 10 µM | 0.003 µM
7 | COCc1cccc(C[C@H](O)/C=C/[C@H]2CCC(=O)[C@@H]2C/C=C\CCCC(=O)O)c1 [2 (15), (15α)-9-oxo-15-Hydroxy-16-(3-methoxymethylphenyl)-17,18,19,20-tetranorprost-5Z,13E-dienoic Acid] | 1.4 µM | 0.0026 µM
8 | CCCOCc1cccc(CC(O)/C=C/[C@@H]2[C@@H](C/C=C\CCCC(=O)O)[C@H](F)C[C@H]2O)c1 (stereo partly drawn) [4 (12), (9β,11α,15ξ)-9-Fluoro-11,15-dihydroxy-16-(3-propyloxymethylphenyl)-17,18,19,20-tetranorprost-5Z,13E-dienoic Acid] | 0.35 µM | 0.0059 µM
9 | CCOCc1cccc(C[C@H](O)/C=C/[C@@H]2[C@@H](C/C=C\CCCC(=O)O)[C@H](Cl)C[C@H]2O)c1 [8 (6), (9β,11α,15α)-9-Chloro-11,15-dihydroxy-16-(3-ethoxymethylphenyl)-17,18,19,20-tetranorprost-5Z,13E-dienoic Acid] | 0.04 µM | 0.0015 µM
10 | COc1ccc(C[C@H](O)/C=C/[C@H]2[C@H](O)CC(=O)[C@@H]2C/C=C\CCCC(=O)O)cc1 [reference compound] | 0.048 µM | 0.067 µM
11 | CCOCc1cccc(C[C@H](O)/C=C/[C@H]2[C@H](O)CC(=O)[C@@H]2C/C=C\CCCC(=O)O)c1 [2 (11), (11α,15α)-9-oxo-11,15-Dihydroxy-16-(3-ethoxymethylphenyl)-17,18,19,20-tetranorprost-5Z,13E-dienoic Acid] | 0.54 µM | 0.01 µM
